Earlier results on one compound are cited in patent publication US6691638B2, “Methods for gamete production in birds” (North Carolina State University, priority 2000, dated 2004).

Molecules are shown by their SMILES.

The test system of one series is gonadal germ cells. The conditions noted are these: cited from earlier work.
Another series deals with quail eggs. The conditions noted are these: albumen suspension of BU; cited from earlier work.
The subject of series [1] is PGCs. The conditions noted are these: administration in rats; cited from earlier work.
For series [2] the following is noted: in vivo; cited from earlier work.
Series [3] concerns PGCs. The conditions noted are these: cited from earlier work.
The test system of another series is chick embryos. The conditions noted are these: injection into the yolk sac; cited from earlier work.
A further series concerns germ cells. To be noted: 100 μg BU in sesame oil; cited from earlier work.
The conditions of series [4]: forms a suspension; cited from earlier work.
Where [5] appears, read: 50 μg BU suspended in sesame oil, 6 day-old chick embryos.
Where [6] appears, read: after injection of germinal crescent cells into BU-treated embryos.

`CS(=O)(=O)OCCCCOS(C)(=O)=O` [BU, 1,4-butanediol dimethane sulfonate]: the “Increase of the rate of germline chimerism” value in the series on gonadal germ cells (compared to non-BU treated embryos, estimated) is on record as 3.5 fold. In addition, the “Effect on gonadal germ cells in chick embryos” value with gonadal germ cells (injection of 25, 50 and 250 μg BU) is listed as “significantly reduced”. The Effect on hatchability entry with quail eggs was “significant declines in hatchability”. In the series on PGCs [1], the “Effect on development of PGCs” value was “markedly impair”. Further, in series [2], the Half-life entry is recorded as “approximately 10 hours”. Besides, in the series on PGCs [3] (setting [5]), the “Reduction of PGCs in the left gonad” value was 75% and the “Reduction of PGCs in the right gonad” value was 78%. For the same compound, in the series on PGCs [3] (setting [6]), the “PGC numbers, left gonad, % of controls” value was 72 % of controls and the “PGC numbers, right gonad, % of controls” value is listed as 115 % of controls. Moreover, the Teratogenic effect result in the series on chick embryos is given as “multiple malformations”. In the series on germ cells, the Sterility index is at least 95%. Further, the “Solubility in aqueous solutions” value in series [4] was “relatively insoluble”.
